Like-named read-outs stand apart in the source and are kept apart here.
System: Phytophthora infestans
Type: in vivo
Conditions: for Efficacy (obs.)/ %: percentage disease control relative to untreated plants; for Rating: potato plants, spray 200 l/ha, inoculated 24 hours after treatment, degree of infestation

For `CCCOC(=O)NCCCN(C)C` [Compound (II), propyl 3-(dimethylamino)propylcarbamate], the “Efficacy (obs.)/ %” value (400 g/ha) was 0%, the “Efficacy (obs.)/ %” value (600 g/ha) was 18% and the Rating (400 g/ha) was 8.3. It also gave a Rating (600 g/ha) of 6.8.
`O=C(NCc1ncc(C(F)(F)F)cc1Cl)c1c(Cl)cccc1Cl` [Compound (Ia), 2,6-dichloro-N-{[3-chloro-5-(trifluoromethyl)-2-pyridinyl]methyl}benzamide] was tested, and the “Efficacy (obs.)/ %” value (5 g/ha) was 48%, the “Efficacy (obs.)/ %” value (25 g/ha) was 60% and the Rating (5 g/ha) was 4.3. It also gave a Rating (25 g/ha) of 3.3.
